The results in this text go back to ChEMBL document CHEMBL4304804, “Synthesis and biological evaluation of calycanthaceous alkaloid analogs” (Bioorg Med Chem, 2019).

One assay has as its target Acetylcholinesterase (Electrophorus electricus, UniProt O42275). As to the kind of experiment: Inhibition of electric eel AChE by Ellman's colorimetry. (In general: In Ellman's method for cholinesterases, released thiocholine reacts with DTNB.)
Another assay concerns Candida tropicalis. The assay is described as follows: Antifungal activity against Candida tropicalis assessed as reduction in fungal cell growth incubated for 48 hrs by serial dilution method. It counts as functional.
In a further assay the test system is Fusarium oxysporum. The assay is described as follows: Antifungal activity against Fusarium oxysporum assessed as reduction in fungal cell growth incubated for 48 hrs by serial dilution method. It is filed as functional.
For another assay, the system named is Aspergillus niger. As to the kind of experiment: Antifungal activity against Aspergillus niger assessed as reduction in fungal cell growth incubated for 48 hrs by serial dilution method. It counts as functional.
The subject of another assay is Aspergillus flavus. The assay is described as follows: Antifungal activity against Aspergillus flavus assessed as reduction in fungal cell growth incubated for 48 hrs by serial dilution method. It is filed as functional.
For the next assay, the system named is Cytospora. As to the kind of experiment: Antifungal activity against Cytospora juglandis assessed as reduction in fungal cell growth incubated for 48 hrs by serial dilution method. It is filed as functional.
The test system of another assay is Verticillium dahliae. The assay is described as follows: Antifungal activity against Verticillium dahliae assessed as reduction in fungal cell growth incubated for 48 hrs by serial dilution method. It is filed as functional.
For a further assay, the system named is Curvularia lunata. As to the kind of experiment: Antifungal activity against Curvularia lunata assessed as reduction in fungal cell growth incubated for 48 hrs by serial dilution method. It is filed as functional.
The test system of a further assay is Ralstonia solanacearum. As to the kind of experiment: Antibacterial activity against Ralstonia solanacearum assessed as reduction in bacterial cell growth incubated for 24 hrs by filter paper assay. It is filed as functional.
The subject of assay [1] is Fusarium oxysporum f. sp. vasinfectum. The assay is described as follows: Antifungal activity against Fusarium oxysporum sp. vasinfectum assessed as reduction in fungal cell growth incubated for 48 hrs by serial dilution method. It is filed as functional.
In a further assay the test system is Bacillus cereus. As to the kind of experiment: Antibacterial activity against Bacillus cereus assessed as reduction in bacterial cell growth incubated for 24 hrs by filter paper assay. It counts as functional.
For another assay, the system named is Escherichia coli. As to the kind of experiment: Antibacterial activity against Escherichia coli assessed as reduction in bacterial cell growth incubated for 24 hrs by filter paper assay. It counts as functional.
For assay [2], the system named is Colletotrichum orbiculare. The assay is described as follows: Antifungal activity against Colletotrichum orbiculare assessed as reduction in fungal cell growth incubated for 48 hrs by serial dilution method. It counts as functional.
The next assay concerns Penicillium citrinum. As to the kind of experiment: Antifungal activity against Penicillium citrinum assessed as reduction in fungal cell growth incubated for 48 hrs by serial dilution method. It counts as functional.
A further assay deals with Cryptococcus neoformans. The assay is described as follows: Antifungal activity against Cryptococcus neoformans assessed as reduction in fungal cell growth incubated for 48 hrs by serial dilution method. It is filed as functional.
Another assay relates to Pseudomonas aeruginosa. As to the kind of experiment: Antibacterial activity against Pseudomonas aeruginosa assessed as reduction in bacterial cell growth incubated for 24 hrs by filter paper assay. It counts as functional.
In the next assay the test system is Staphylococcus aureus. As to the kind of experiment: Antibacterial activity against Staphylococcus aureus assessed as reduction in bacterial cell growth incubated for 24 hrs by filter paper assay. It counts as functional.
Another assay has as its system Candida. The assay is described as follows: Antifungal activity against […] assessed as reduction in fungal cell growth incubated for 48 hrs by serial dilution method. It counts as functional.

In brackets after ≈: the same amount, converted by molar mass. Activity calls are given as the source filed them. The calls are words filed in the database; no cut-off is given here.

Sequence of Acetylcholinesterase (O42275 whole entry): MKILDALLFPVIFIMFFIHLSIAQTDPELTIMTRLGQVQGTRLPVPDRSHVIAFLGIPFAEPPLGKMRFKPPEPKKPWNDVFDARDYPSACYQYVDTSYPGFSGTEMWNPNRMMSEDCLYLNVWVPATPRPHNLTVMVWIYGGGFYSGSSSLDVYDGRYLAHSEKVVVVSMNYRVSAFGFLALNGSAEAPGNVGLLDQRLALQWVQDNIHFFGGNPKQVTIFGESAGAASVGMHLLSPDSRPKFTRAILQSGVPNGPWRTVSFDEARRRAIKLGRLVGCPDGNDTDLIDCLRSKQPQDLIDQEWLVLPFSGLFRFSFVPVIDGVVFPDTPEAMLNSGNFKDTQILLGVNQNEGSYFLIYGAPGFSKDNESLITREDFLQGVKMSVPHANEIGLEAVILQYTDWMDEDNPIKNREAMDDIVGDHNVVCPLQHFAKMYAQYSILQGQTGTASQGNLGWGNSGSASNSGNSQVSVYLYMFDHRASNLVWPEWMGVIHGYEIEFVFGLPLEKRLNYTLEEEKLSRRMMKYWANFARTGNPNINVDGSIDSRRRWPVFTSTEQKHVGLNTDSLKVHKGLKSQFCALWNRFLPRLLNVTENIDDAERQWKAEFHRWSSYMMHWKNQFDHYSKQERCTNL

Broadly, the IC50 is the midpoint of a concentration-inhibition curve. By MIC is commonly meant the least concentration at which growth counts as inhibited. Take `Cc1ccc(S(=O)(=O)N2CCC3(Cc4cccc(C)c4)c4ccccc4N(Cc4cccc(C)c4)C23)cc1` (centres undefined): the IC50 at Acetylcholinesterase was 12.8 µM. The MIC entry with Candida tropicalis, in the assay on Curvularia lunata, in the assay on Ralstonia solanacearum, in the assay on Escherichia coli, in the assay with Penicillium citrinum and in the assay with Cryptococcus neoformans was “inactive” each time. The MIC result in the assay with Pseudomonas aeruginosa and with Staphylococcus aureus was “inactive” in each case. Further, the MIC stood at 250 µg/mL (≈ 478 µM) in the assay with Fusarium oxysporum; 250 µg/mL (≈ 478 µM) in the assay with Aspergillus niger; 250 µg/mL (≈ 478 µM) in the assay on Aspergillus flavus; 250 µg/mL (≈ 478 µM) in the assay with Cytospora; 62.5 µg/mL (≈ 120 µM) in the assay with Verticillium dahliae; 125 µg/mL (≈ 239 µM) in assay [1]. In addition, the MIC in the assay with Bacillus cereus came to 125 µg/mL (≈ 239 µM); in [2], 250 µg/mL (≈ 478 µM); with Candida, 250 µg/mL (≈ 478 µM).
`Cc1cccc(CN2c3ccccc3C3(Cc4cccc(C)c4)CCN(C(=O)CCc4ccccc4)C23)c1` (centres undefined) showed an IC50 at Acetylcholinesterase of 0.00399 µM. The MIC result in the assay with Candida tropicalis, in the assay with Aspergillus niger, in the assay with Verticillium dahliae, in the assay with Curvularia lunata, in the assay with Ralstonia solanacearum and in the assay with Bacillus cereus was “inactive” each time. Also, the MIC result (in the assay on Escherichia coli; in assay [2]; in the assay on Penicillium citrinum; in the assay with Cryptococcus neoformans; in the assay with Pseudomonas aeruginosa; with Staphylococcus aureus) was “inactive” throughout. Also, in the assay with Candida, the MIC entry is “inactive”. Also, the MIC is 250 µg/mL (≈ 499 µM) in the assay on Fusarium oxysporum, 250 µg/mL (≈ 499 µM) in the assay on Aspergillus flavus, 250 µg/mL (≈ 499 µM) with Cytospora and 62.5 µg/mL (≈ 125 µM) in [1].
For `Cc1ccccc1CN1c2ccccc2C2(Cc3ccccc3C)CCN(C(=O)COc3ccccc3)C12` (centres undefined), the IC50 at Acetylcholinesterase was 787 µM. The MIC in the assay with Candida tropicalis, with Fusarium oxysporum, in the assay with Aspergillus niger, with Aspergillus flavus, in the assay with Cytospora and in the assay on Verticillium dahliae was 250 µg/mL (≈ 497 µM) each time. For the same compound, the MIC in the assay on Bacillus cereus came to 250 µg/mL (≈ 497 µM); in assay [2], 250 µg/mL (≈ 497 µM); with Penicillium citrinum, 125 µg/mL (≈ 249 µM); in the assay on Candida it was 250 µg/mL (≈ 497 µM). Besides, the MIC result (with Curvularia lunata; in the assay on Ralstonia solanacearum; in assay [1]; in the assay on Escherichia coli; in the assay on Cryptococcus neoformans; in the assay with Pseudomonas aeruginosa) was “inactive” in each case. For the same compound, in the assay with Staphylococcus aureus, the MIC entry is “inactive”.
Consider `CCCCCCC(=O)N1CCC2(Cc3ccccc3C)c3ccccc3N(Cc3ccccc3C)C12` (centres undefined), for which the IC50 against Acetylcholinesterase was 90.8 µM. For the same compound, the MIC in the assay on Candida tropicalis is 250 µg/mL (≈ 520 µM); in the assay with Fusarium oxysporum, 125 µg/mL (≈ 260 µM); in the assay on Aspergillus niger it was 250 µg/mL (≈ 520 µM); in the assay on Aspergillus flavus, 250 µg/mL (≈ 520 µM); in the assay on Cytospora, 62.5 µg/mL (≈ 130 µM); in the assay with Verticillium dahliae, 62.5 µg/mL (≈ 130 µM). For the same compound, the MIC in the assay on Curvularia lunata turned out to be 125 µg/mL (≈ 260 µM); in the assay with Ralstonia solanacearum, 125 µg/mL (≈ 260 µM); in assay [1], 250 µg/mL (≈ 520 µM); with Escherichia coli, 250 µg/mL (≈ 520 µM); in assay [2], 250 µg/mL (≈ 520 µM); in the assay on Penicillium citrinum it was 125 µg/mL (≈ 260 µM). In addition, the MIC in the assay with Pseudomonas aeruginosa and with Candida was 250 µg/mL (≈ 520 µM) throughout. Moreover, the MIC entry with Bacillus cereus, with Cryptococcus neoformans and in the assay with Staphylococcus aureus was “inactive” in each case.
As for `CN1c2ccccc2C2(O)CCCN(C(=O)c3cccc(F)c3)C12` (centres undefined), on Acetylcholinesterase, the midpoint of inhibition, the IC50, lay at 0.337 µM. For the same compound, the MIC result with Candida tropicalis, in the assay with Fusarium oxysporum, with Aspergillus niger, in the assay with Aspergillus flavus, with Cytospora and in the assay on Curvularia lunata was “inactive” throughout. In addition, the MIC result (in assay [1]; in the assay on Bacillus cereus; in [2]; with Penicillium citrinum; in the assay with Cryptococcus neoformans; in the assay on Staphylococcus aureus) was “inactive” throughout. The MIC entry with Candida was “inactive”. Further, the MIC in the assay with Verticillium dahliae, with Ralstonia solanacearum, with Escherichia coli and with Pseudomonas aeruginosa was 250 µg/mL (≈ 766 µM) throughout.
As for `Cc1cccc(CN2c3ccccc3C3(Cc4cccc(C)c4)CCN(C(=O)c4ccccc4)C23)c1` (centres undefined), half-maximal inhibition against Acetylcholinesterase (IC50) required 45.1 µM. Also, the MIC result in the assay on Candida tropicalis, in the assay with Curvularia lunata, with Ralstonia solanacearum, with Bacillus cereus, in the assay on Escherichia coli and with Cryptococcus neoformans was “inactive” in each case. Besides, the MIC entry in the assay with Pseudomonas aeruginosa, in the assay with Staphylococcus aureus and with Candida was “inactive” each time. In addition, the MIC in the assay with Fusarium oxysporum came to 250 µg/mL (≈ 529 µM); in the assay on Aspergillus niger, 250 µg/mL (≈ 529 µM); with Aspergillus flavus it was 250 µg/mL (≈ 529 µM); in the assay with Cytospora, 62.5 µg/mL (≈ 132 µM); with Verticillium dahliae, 31.2 µg/mL (≈ 66.1 µM); in assay [1] it was 62.5 µg/mL (≈ 132 µM). In addition, the MIC (in assay [2]; in the assay with Penicillium citrinum) was 250 µg/mL (≈ 529 µM) throughout.
Take `CCCCC(=O)N1CCC2(Cc3cccc(C)c3)c3ccccc3N(Cc3cccc(C)c3)C12` (centres undefined): the IC50 on Acetylcholinesterase is 0.133 µM. Moreover, the MIC was 250 µg/mL (≈ 552 µM) in the assay with Candida tropicalis; 125 µg/mL (≈ 276 µM) in the assay on Fusarium oxysporum; 250 µg/mL (≈ 552 µM) in the assay with Aspergillus niger; 250 µg/mL (≈ 552 µM) in the assay on Aspergillus flavus; 250 µg/mL (≈ 552 µM) in the assay on Cytospora; 31.2 µg/mL (≈ 69 µM) in the assay with Verticillium dahliae. The MIC was 250 µg/mL (≈ 552 µM) in the assay with Ralstonia solanacearum; 250 µg/mL (≈ 552 µM) in the assay with Bacillus cereus; 250 µg/mL (≈ 552 µM) in the assay on Escherichia coli; 250 µg/mL (≈ 552 µM) in the assay on Penicillium citrinum; 125 µg/mL (≈ 276 µM) in the assay with Pseudomonas aeruginosa; 250 µg/mL (≈ 552 µM) with Staphylococcus aureus. For the same compound, the MIC with Candida was found to be 250 µg/mL (≈ 552 µM). Moreover, the MIC entry (with Curvularia lunata; in assay [1]; in [2]; in the assay on Cryptococcus neoformans) was “inactive” throughout.
Take `COc1ccc(C(=O)N2CCC3(Cc4ccccc4C)c4ccccc4N(Cc4ccccc4C)C23)cc1` (centres undefined): the half-inhibitory concentration (IC50) on Acetylcholinesterase was 126 µM. In addition, the MIC entry (in the assay on Candida tropicalis; in the assay with Curvularia lunata; in the assay on Ralstonia solanacearum; in assay [1]; in the assay with Bacillus cereus; in the assay on Escherichia coli) was “inactive” in each case. Moreover, the MIC entry (in assay [2]; in the assay on Penicillium citrinum; with Cryptococcus neoformans; in the assay with Pseudomonas aeruginosa; in the assay with Staphylococcus aureus; in the assay with Candida) was “inactive” each time. For the same compound, the MIC with Fusarium oxysporum, with Aspergillus niger, with Aspergillus flavus, in the assay on Cytospora and with Verticillium dahliae was 250 µg/mL (≈ 497 µM) in each case.
